# What was measured:
# Assay type in all cases: cell-based
# [1] = system: HepG2 (human liver cancer cell); assay: In vitro inhibitory effect against human tumor cells (SRB); conditions: HepG2, 72 h, 3 days
# [2] = system: HCC827 (human non-small cell lung cancer); assay: as above; conditions: HCC827, 72 h, 3 days
# [3] = system: 22RV1 (human prostate cancer); assay: as above; conditions: 22Rv1, 72 h, 22RV1, SRB, 3 days
# [4] = system: MDA-MB-468 (human triple-negative breast cancer); assay: as above; conditions: MDA-MB-468, 72 h, MDA-MB-468, SRB, 3 days
# [5] = system: A375 (human malignant melanoma); assay: as above; conditions: A-375, 72 h, 3 days
# [6] = system: SW620 (human colorectal cancer); assay: as above; conditions: SW-620, 72 h, 3 days
# [7] = system: BxPC-3 (human pancreatic cancer in situ); assay: In vitro inhibitory effect against human tumor cells (MTT or SRB); conditions: BXPC-3, 72 h, BxPC-3, test method printed MTT (head: SRB), 3 days
# [8] = With addition of βGU (1 µg/well)
smiles,measurement,setting,value
CC[C@H](C)[C@@H]([C@@H](CC(=O)N1CCC[C@H]1[C@H](OC)[C@@H](C)C(=O)N[C@H](C)[C@@H](OCc1ccc(O[C@@H]2O[C@H](C(=O)[O-])[C@@H](O)[C@H](O)[C@H]2O)cc1OCc1cn(CCCCCC(=O)Nc2ccc(-c3ccc(/N=N/c4ccc5c(S(=O)(=O)[O-])cc(S(=O)(=O)[O-])c(N)c5c4O)c(C)c3)cc2C)nn1)c1ccccc1)OC)N(C)C(=O)[C@@H](NC(=O)[C@H](C(C)C)N(C)C)C(C)C.[Na+].[Na+].[Na+] [Example compound 2],IC50,[1]; [8],4.3 nM
same,IC50,[1]; βGU-free,120 nM
same,IC50,[2]; [8],3.8 nM
same,IC50,[2]; βGU-free,110 nM
same,IC50,[3]; [8],7.5 nM
same,IC50,[3]; βGU-free,176 nM
same,IC50,[4]; [8],2.7 nM
same,IC50,[4]; βGU-free,24 nM
same,IC50,[5]; [8],6.7 nM
same,IC50,[5]; βGU-free,212 nM
same,IC50,[6]; [8],6.7 nM
same,IC50,[6]; βGU-free,81 nM
same,IC50,[7]; [8],3.9 nM
same,IC50,[7]; βGU-free,43 nM

# — patent EP4818187A1, “COMPOUND AND USE THEREOF” (Ganzhou Hemay Pharmaceutical, Co., Ltd, priority 2023, dated 2025)
